Laboratory results reported in ChEMBL document CHEMBL3272130, “Synthesis and hypotensive activity of some cyclopentano-1,2,3,4-tetrahydroisoquinolines” (J Med Chem, 1977).

Assays:
Rattus norvegicus [1] = experiment: Hypotensive activity in deoxycorticosterone acetate treated hypertensive CD rat assessed as change in blood pressure at 10 mg, ip after 2 hrs relative to control; format: functional
Rattus norvegicus [2] = experiment: Hypotensive activity in deoxycorticosterone acetate treated hypertensive CD rat assessed as change in blood pressure at 10 mg, ip after 4 hrs relative to control; format: functional
Rattus norvegicus [3] = experiment: Hypotensive activity in deoxycorticosterone acetate treated hypertensive CD rat assessed as change in blood pressure at 10 mg, ip after 24 hrs relative to control; format: functional
Rattus norvegicus [4] = experiment: Hypotensive activity in deoxycorticosterone acetate treated hypertensive CD rat assessed as change in blood pressure at 5 mg, ip after 1 hr relative to control; format: functional
Rattus norvegicus [5] = experiment: Hypotensive activity in deoxycorticosterone acetate treated hypertensive CD rat assessed as change in blood pressure at 5 mg, ip after 2 hrs relative to control; format: functional
Rattus norvegicus [6] = experiment: Hypotensive activity in deoxycorticosterone acetate treated hypertensive CD rat assessed as change in blood pressure at 5 mg, ip after 4 hrs relative to control; format: functional
Rattus norvegicus [7] = experiment: Hypotensive activity in deoxycorticosterone acetate treated hypertensive CD rat assessed as change in blood pressure at 5 mg, ip after 24 hrs relative to control; format: functional
Rattus norvegicus [8] = experiment: Cardiovascular activity in deoxycorticosterone acetate treated hypertensive CD rat assessed as change in heart rate at 10 mg, ip after 2 hrs relative to control; format: ADME, organism-based; settings: in vivo
Rattus norvegicus [9] = experiment: Cardiovascular activity in deoxycorticosterone acetate treated hypertensive CD rat assessed as change in heart rate at 10 mg, ip after 4 hrs relative to control; format: ADME, organism-based; settings: in vivo
Rattus norvegicus [10] = experiment: Cardiovascular activity in deoxycorticosterone acetate treated hypertensive CD rat assessed as change in heart rate at 10 mg, ip after 24 hrs relative to control; format: ADME, organism-based; settings: in vivo
Rattus norvegicus [11] = experiment: Cardiovascular activity in deoxycorticosterone acetate treated hypertensive CD rat assessed as change in heart rate at 5 mg, ip after 1 hr relative to control; format: ADME, organism-based; settings: in vivo
Rattus norvegicus [12] = experiment: Cardiovascular activity in deoxycorticosterone acetate treated hypertensive CD rat assessed as change in heart rate at 5 mg, ip after 2 hrs relative to control; format: ADME, organism-based; settings: in vivo
Rattus norvegicus [13] = experiment: Cardiovascular activity in deoxycorticosterone acetate treated hypertensive CD rat assessed as change in heart rate at 5 mg, ip after 4 hrs relative to control; format: ADME, organism-based; settings: in vivo
Rattus norvegicus [14] = experiment: Cardiovascular activity in deoxycorticosterone acetate treated hypertensive CD rat assessed as change in heart rate at 5 mg, ip after 24 hrs relative to control; format: ADME, organism-based; settings: in vivo
[15] = Toxicity in ip dosed Swiss-Webster mouse after 24 hrs; format: organism-based; settings: in vivo
Rattus norvegicus [16] = experiment: Hypotensive activity in deoxycorticosterone acetate treated hypertensive CD rat assessed as change in blood pressure at 25 mg, ip after 1 hr relative to control; format: functional
Rattus norvegicus [17] = experiment: Hypotensive activity in deoxycorticosterone acetate treated hypertensive CD rat assessed as change in blood pressure at 25 mg, ip after 2 hrs relative to control; format: functional
Rattus norvegicus [18] = experiment: Hypotensive activity in deoxycorticosterone acetate treated hypertensive CD rat assessed as change in blood pressure at 25 mg, ip after 4 hrs relative to control; format: functional
Rattus norvegicus [19] = experiment: Hypotensive activity in deoxycorticosterone acetate treated hypertensive CD rat assessed as change in blood pressure at 25 mg, ip after 24 hrs relative to control; format: functional
Rattus norvegicus [20] = experiment: Cardiovascular activity in deoxycorticosterone acetate treated hypertensive CD rat assessed as change in heart rate at 25 mg, ip after 1 hr relative to control; format: ADME, organism-based; settings: in vivo
Rattus norvegicus [21] = experiment: Cardiovascular activity in deoxycorticosterone acetate treated hypertensive CD rat assessed as change in heart rate at 25 mg, ip after 2 hrs relative to control; format: ADME, organism-based; settings: in vivo
Rattus norvegicus [22] = experiment: Cardiovascular activity in deoxycorticosterone acetate treated hypertensive CD rat assessed as change in heart rate at 25 mg, ip after 4 hrs relative to control; format: ADME, organism-based; settings: in vivo
Rattus norvegicus [23] = experiment: Cardiovascular activity in deoxycorticosterone acetate treated hypertensive CD rat assessed as change in heart rate at 25 mg, ip after 24 hrs relative to control; format: ADME, organism-based; settings: in vivo
Rattus norvegicus [24] = experiment: Hypotensive activity in deoxycorticosterone acetate treated hypertensive CD rat assessed as change in blood pressure at 4 mg, ip after 1 hr relative to control; format: functional
Rattus norvegicus [25] = experiment: Hypotensive activity in deoxycorticosterone acetate treated hypertensive CD rat assessed as change in blood pressure at 4 mg, ip after 2 hrs relative to control; format: functional
Rattus norvegicus [26] = experiment: Hypotensive activity in deoxycorticosterone acetate treated hypertensive CD rat assessed as change in blood pressure at 4 mg, ip after 4 hrs relative to control; format: functional
Rattus norvegicus [27] = experiment: Hypotensive activity in deoxycorticosterone acetate treated hypertensive CD rat assessed as change in blood pressure at 4 mg, ip after 24 hrs relative to control; format: functional
Rattus norvegicus [28] = experiment: Cardiovascular activity in deoxycorticosterone acetate treated hypertensive CD rat assessed as change in heart rate at 4 mg, ip after 1 hr relative to control; format: ADME, organism-based; settings: in vivo
Rattus norvegicus [29] = experiment: Cardiovascular activity in deoxycorticosterone acetate treated hypertensive CD rat assessed as change in heart rate at 4 mg, ip after 2 hrs relative to control; format: ADME, organism-based; settings: in vivo
Rattus norvegicus [30] = experiment: Cardiovascular activity in deoxycorticosterone acetate treated hypertensive CD rat assessed as change in heart rate at 4 mg, ip after 4 hrs relative to control; format: ADME, organism-based; settings: in vivo
Rattus norvegicus [31] = experiment: Cardiovascular activity in deoxycorticosterone acetate treated hypertensive CD rat assessed as change in heart rate at 4 mg, ip after 24 hrs relative to control; format: ADME, organism-based; settings: in vivo

`COc1c2c(c3c(c1OC)CCNC3)CCC2` gave an Activity (Rattus norvegicus [1]) of -13.2%, an Activity (Rattus norvegicus [2]) of 2.4% and an Activity (Rattus norvegicus [3]) of 1%. It also gave an Activity (Rattus norvegicus [4]) of -9.5%, an Activity (Rattus norvegicus [5]) of -3% and an Activity (Rattus norvegicus [6]) of -6.5%. For the same compound, the Activity (Rattus norvegicus [7]) was 1.8%, the Activity (Rattus norvegicus [8]) was 4.7% and the Activity (Rattus norvegicus [9]) was 9%. The Activity (Rattus norvegicus [10]) was -2.6%, the Activity (Rattus norvegicus [11]) was -5.2% and the Activity (Rattus norvegicus [12]) was -1.4%. For the same compound, the Activity (Rattus norvegicus [13]) was -8.5%, the Activity (Rattus norvegicus [14]) was -12.2% and the LD50 at 24 h [15] was 25 mg/kg.

Work on `Br.CCC(C)CN1CCc2c(c3c(c(OC)c2OC)CCC3)C1` (stereo not drawn) yielded an Activity (Rattus norvegicus [16]) of -17.2%, an Activity (Rattus norvegicus [17]) of -12.6% and an Activity (Rattus norvegicus [18]) of -6.7%. It also gave an Activity (Rattus norvegicus [19]) of 1.3%, an Activity (Rattus norvegicus [20]) of 13.7% and an Activity (Rattus norvegicus [21]) of 11.8%. It also gave an Activity (Rattus norvegicus [22]) of 5%, an Activity (Rattus norvegicus [23]) of -0.3% and an LD50 at 24 h [15] of 178 mg/kg.

Compound `Br.COc1c2c(c3c(c1OC)CCN(C)C3)CCC2` has an Activity (Rattus norvegicus [24]) of 13%, an Activity (Rattus norvegicus [25]) of 12.2% and an Activity (Rattus norvegicus [26]) of -2.6%. The Activity (Rattus norvegicus [27]) was 19.7%, the Activity (Rattus norvegicus [28]) was 13.2% and the Activity (Rattus norvegicus [29]) was 11.2%. For the same compound, the Activity (Rattus norvegicus [30]) was -0.4%, the Activity (Rattus norvegicus [31]) was 1.8% and the LD50 at 24 h [15] was 10 mg/kg.
